Literature values as cited in patent publication US7411005B2, “Compositions and methods for increasing milk production in animals” (Van Beek Natural Science, LLC, priority 2002, dated 2008).

Conditions: inactive metabolites after degradation by enzymes

Row | SMILES | metabolites excreted in the urine | metabolites expired from the lungs in the form of CO2
1 | Cc1ccc(C(C)C)cc1O [isopropyl-o-cresol, 5-isopropyl-2-methylphenol] | approx. 90% | 10%
2 | Cc1ccc(C(C)C)c(O)c1 [isopropyl-cresol, 5-methyl-2[1-methylethyl]phenol] | approx. 90% | 10%
